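Five compound concentrations were applied to cells in 96-well plates for 48 hours; endpoints were derived by simple linear interpolation of the resulting dose-response curve. Abbreviation: GI50, concentration required for 50% inhibition of growth. TGI: concentration producing complete growth inhibition.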 Where a SMILES comes first, the peptide text is derived from it. [ ]: non-standard residue; d: D form. The star is where a group is joined. ξ: configuration not given here. ξF = NC(Cc1ccccc1)C(=O)O; Cbz = O=C(OCc1ccccc1)*; Aib = CC(C)(N)C(=O)O
Key:
Assay in all cases: NCI anticancer screen, dose series, 48 h
[1] = test system: MCF7 breast
[2] = test system: SNB-19 CNS
[3] = test system: HCT-15 colon
[4] = test system: HS 578T breast
[5] = test system: MDA-N
[6] = test system: BT-549 breast
[7] = test system: DMS 114 small cell lung
[8] = test system: ACHN renal
[9] = test system: A549 NSCLC
[10] = test system: DMS 273 small cell lung
[11] = test system: 786-0 renal

Row | SMILES | TGI [1] [µM] | TGI [2] [µM] | TGI [3] [µM] | TGI [4] [µM] | TGI [5] [µM] | TGI [6] [µM] | GI50 [2] [µM] | GI50 [7] [µM] | TGI [7] [µM] | GI50 [3] [µM] | GI50 [8] [µM] | TGI [8] [µM] | GI50 [9] [µM] | TGI [9] [µM] | GI50 [10] [µM] | TGI [10] [µM] | TGI [11] [µM] | GI50 [1] [µM] | GI50 [4] [µM] | GI50 [6] [µM]
1 | CCOC(=O)CCC(NC(=O)OCc1ccccc1)C(=O)NC(CCC(=O)OCC)C(=O)NNC(=O)OC(C)(C)C (centres undefined) | > 100 | > 100 | > 100 | > 100 | > 100 | > 100 | – | – | – | – | – | – | – | – | – | – | – | – | – | –
2 | C[CH2][Ge]([CH2]C)([CH2]C)[O]C(=O)CCC(=O)[O][Ge]([CH2]C)([CH2]C)[CH2]C | – | > 100 | > 100 | – | – | – | > 100 | 38.9 | > 100 | 48.4 | > 100 | > 100 | 68.5 | > 100 | 85.9 | > 100 | – | – | – | –
3 | COC(=O)C(C)(C)NC(=O)C(Cc1ccccc1)NC(=O)C(C)(C)NC(=O)OCc1ccccc1 (centres undefined) (Cbz-[Aib]-[ξF]-[Aib]-OMe) | > 100 | > 100 | > 100 | – | > 100 | – | – | – | – | – | – | > 100 | – | > 100 | – | – | – | – | – | –
4 | N=C(N)c1ccc(-c2ccc(-c3cccs3)s2)s1 | – | 3.07 | – | – | – | – | 1.56 | – | – | – | 1.66 | 3.09 | – | – | – | – | – | – | – | –
5 | C(=N\OCCc1ccccc1)/c1cccnc1 | > 100 | > 100 | > 100 | > 100 | > 100 | > 100 | – | – | – | – | – | > 100 | – | > 100 | – | – | > 100 | – | – | –
6 | NCCSCc1ccccc1Cl | – | > 100 | > 100 | > 100 | > 100 | > 100 | – | – | – | – | – | > 100 | – | > 100 | – | – | > 100 | – | – | –
7 | COc1cc(-c2n/c(=C\c3c(O)[nH]c4cc(Cl)ccc34)cc3c2=Nc2ccccc2-3)cc(OC)c1OC | 13.6 | 15.5 | > 100 | 19 | – | 5.12 | 3.52 | – | – | 30.9 | 4.49 | 22.2 | 4.8 | 21.9 | – | – | – | 2.71 | 2.51 | 2.25
8 | Cc1ccc(C(O)(c2ccc(C)cc2)c2ccccn2)cc1 | – | > 100 | > 100 | – | – | – | – | – | > 100 | – | – | > 100 | – | > 100 | – | > 100 | > 100 | – | – | –
9 | CC(=O)ON1C(=O)c2cccc3cccc(c23)C1=O | > 100 | > 100 | > 100 | 79.3 | 93.3 | 74.5 | – | – | – | – | – | > 100 | – | > 100 | – | – | – | – | – | –
10 | c1cncc(O[Si](Oc2cccnc2)(Oc2cccnc2)Oc2cccnc2)c1 | – | > 100 | > 100 | – | – | – | – | – | > 100 | – | – | – | – | > 100 | – | > 100 | – | – | – | –
